Key:
[1] = mn = molality of the nth substance listed, in mol/kg; conditions: 99.6 kPa, Liquid, Vibrating tube method
[2] = 99.6 kPa, Liquid, Vibrating tube method

CCN1C(=O)N(C)[C@@H]2[C@H]1N(C)C(=O)N2CC + O
mass density [kg/m3], [1]
Conditions	m1 = 0.01976	m1 = 0.04272	m1 = 0.06009	m1 = 0.07765	m1 = 0.1094	m1 = 0.136	m1 = 0.155	m1 = 0.1749	m1 = 0.1935
278.15 K	1000.71	1001.58	1002.23	1002.88	1004.07	1005.05	1005.75	1006.48	1007.16
288.15 K	999.821	1000.65	1001.28	1001.91	1003.04	1003.98	1004.64	1005.34	1005.98
298.15 K	997.745	998.551	999.157	999.764	1000.85	1001.76	1002.4	1003.07	1003.68
308.15 K	994.713	995.494	996.08	996.672	997.724	998.597	999.219	999.861	1000.46
318.15 K	990.876	991.636	992.207	992.779	993.803	994.654	995.256	995.879	996.461

O [water] + CCN1C(=O)N(C)[C@@H]2[C@H]1N(C)C(=O)N2CC
Conditions	mass density [kg/m3]
[1], 278.15 K, m2 = 0	999.964

[2H]O[2H] [water-d2] + CCN1C(=O)N(C)[C@@H]2[C@H]1N(C)C(=O)N2CC
[1], m2 = 0
Conditions	mass density [kg/m3]
278.15 K	1105.52
288.15 K	1105.78
298.15 K	1104.34
308.15 K	1101.65
318.15 K	1097.87

[2H]O[2H] [water-d2]
[2]
Conditions	mass density [kg/m3]
278.15 K	1105.52
288.15 K	1105.78
298.15 K	1104.34
308.15 K	1101.65
318.15 K	1097.87

CCN1C(=O)N(C)[C@@H]2[C@H]1N(C)C(=O)N2CC + [2H]O[2H]
mass density [kg/m3], [1]
Conditions	m1 = 0.02067	m1 = 0.03855	m1 = 0.06093	m1 = 0.08301	m1 = 0.09921	m1 = 0.1206	m1 = 0.1402	m1 = 0.159	m1 = 0.1743
278.15 K	1105.97	1106.36	1106.84	1107.32	1107.67	1108.14	1108.56	1108.97	1109.3
288.15 K	1106.17	1106.51	1106.94	1107.36	1107.67	1108.07	1108.44	1108.8	1109.08
298.15 K	1104.7	1105	1105.38	1105.75	1106.03	1106.39	1106.71	1107.03	1107.28
308.15 K	1101.97	1102.24	1102.58	1102.91	1103.16	1103.47	1103.76	1104.04	1104.28
318.15 K	1098.15	1098.4	1098.71	1099.01	1099.23	1099.52	1099.78	1100.04	1100.24

Reference: the NIST ThermoML archive (doi:10.1016/j.jct.2017.07.034)
